Ends that are not written are not given here.

Assay [1] relates to paw edema. Set-up: method as in PMID 15688321. The settings on record: previous study, similar approach; cited from earlier work.
Assay [2] relates to BK-induced rat paw edema. Nature of the assay: Bradykinin-potentiating activity in vivo (rat paw edema). Set-up: species or system Male Wistar rats. The following applies: intraplantar BK 40 ng/mL (2 ng in 50 μL saline). The protocol:
Male Wistar (200 g-250 g) rats, bred at the Nuclear and Energy Research Institute (IPEN), São Paulo, SP, Brazil were used for the in vivo assays. The animals had access to food and water ad libitum, and were kept under a 12 h-light/dark cycle. Procedures involving animals and their care were in accordance with the guidelines for the use of animals on biomedical research and were approved by the Animal Ethics Committee (protocol 171/16) of IPEN.
Edema was induced by intraplantar injection of 2 ng of BK diluted in 50 μL saline into the left hind paw, which was measured every 5 min for 40 min by a plethysmograph (H. Basile, Italy). The right paw was injected with 50 μL […] saline (NaCl 0.9% w/v). In parallel, a group was injected with the synthetic potentiating peptide (40 ng/mL) in the left paw 10 min before the injection of BK, in order to evaluate the potentiation of BK. In both cases, the volume of the right paw was subtracted from that of volume of the left paw, to give net edema, expressed in μL.
One-way analysis of variance (ANOVA) was performed. The significance level was considered as p < 0.05.

In the case of QWAQWPRPQIPP [BPP9a, B. jararaca BPP9a], in assay [1], the “paw edema (in words)” value was “intense and fast paw edema”.

As to “Bradykinin (RPPGFSPFR; also: acetate salt; UniProt P01042 381-389, looked up) [BK]”, in assay [2] (plethysmograph), the “time at which induced edema was detectable” value turned out to be 5 min. Moreover, the “time course of edema (in words)” value in assay [2] (plethysmograph every 5 min for 40 min) was “declined at a constant rate over the next 40 min”.
